{"source": "patent US20210317090A1", "about": "“AMINO ACID DEPLETION AGENTS AS ANTIPROLIFERATIVE AGENTS” (University of Central Florida Research Foundation, Inc., priority 2018, published 2021)", "key": {"[1]": {"tested_on": "L3.6pl human pancreatic cancer cells", "assay": "Cytotoxicity dose-response (MTS) in L3.6pl cells", "assay_type": "cell-based", "method": "L3.6pl Studies. Compounds 9 and 10 were evaluated in the metastatic human pancreatic cancer cell line, L3.6pl. L3.6pl has a K-ras mutation, and high polyamine uptake activity.^7 A dose-response curve was obtained for each compound in L3.6pl cells to determine the 72 h L3.6pl IC50 value, described as the dose at which L3.6pl cells were 50% viable compared to the untreated control.\n(§1) Regarding the biological studies performed in the following examples, it is noted that CHO K1, CHO-MG, and L3.6pl cells were grown in RPMI 1640 medium supplemented with 10% fetal bovine serum (FBS) and 1% penicillin/streptomycin. All cells were grown at 37° C. under a humidified 5% CO2 atmosphere. Aminoguanidine (1 mM used for CHO K1 and CHOMG cells and 250 μM for L3.6pl) was added to the growth medium to prevent oxidation of the compounds of the bovine serum amine oxidase enzyme that is present in calf serum. The cells used were in early to mid log phase and CHO and CHOMG were plated out at 1000 cells/well, whereas the L3.6pl cells were plated at 500 cells/well in a 96 well plate format.\n(§2) This example illustrates aspects according to various embodiments pertaining to IC50 determinations and cell viability studies. Cell growth was assayed in sterile 96-well microtiter plates (Costar 3599, Corning, N.Y.). CHO K1 or CHOMG cells were plated at 1,000 cells/70 μL and L3.6pl cells at 500 cells/70 μL. The drug solutions of appropriate concentration in phosphate buffered saline (PBS) were added 10 μL per well after overnight incubation. After drug exposure (e.g., for 48 h for CHO K1 and CHO-MG and 48 h or 72 h for L3.6pl), cell growth was determined by measuring formazan formation from the 3-(4,5dimethylthiazol-2-yl)-5-(3-carboxymethoxyphenyl)-2-(4-sulfenyl)-2H tetrazolium, inner salt (MTS) using SynergyMx Biotek microplate reader for absorbance (490 nm) measurements.^27 All experiments were run in triplicate."}, "CHO K1 cells [2]": {"tested_on": "CHO K1 cells", "assay": "cells", "assay_type": "cell-based, Chinese hamster", "conditions": "Cricetulus griseus, Ant-44 0.5 μM", "method": "Various embodiments involve the concept that a non-toxic PTI agent would inhibit the uptake of the cytotoxic polyamine conjugate Ant-44 (11) and rescue cells from Ant-44 induced toxicity. For example, using the IC50 dose of Ant-44, PTIs could be identified by measuring a compound's ability to block Ant-44 entry and rescue cells back to >90% viability. […] This toxic dose of Ant-44 was kept constant throughout the assay, while the candidate PTI compound was added in increasing concentrations up to its MTD.\nCompounds (9 and 10) were tested at 5 μM and 7 μM. CHO K1 cells were treated in a 96-well plate with a toxic dose of Ant-44 (2.4 μM) alone and dosed with the candidate compounds (at 5 μM and 7 μM) and incubated for 48 h at 37° C.\nTo further explore this effect, development of various embodiments included modifying an original screen to use a lower dose of Ant-44 (0.5 μM) to improve the dose range of 9 and 10 that could be tested. In this regard, Ant-44 was dosed at 0.5 μM alone and in combination with increasing doses of compounds 9 (1666.177) and 10 (1666.255) and the CHO K1 cells were incubated for 48 h at 37° C., and the results are shown in FIG. 5. The red line represents the % cell viability of the Ant-44 only control. The Ant44 potentiation assay EC50 value is defined as the concentration of the candidate compound required to decrease the cell viability to half that of the Ant-44 only control. Both compounds 9 and 10 were effective at decreasing cell viability, when used in combination with Ant-44 in a dose dependent fashion.\nFIG. 5 is an example according to various embodiments, illustrating potentiation of Ant-44 toxicity by compounds 9 and 10 in CHO K1 cells. Cells were incubated for 48 h at 37° C. with the respective compound and a fixed concentration of cytotoxic Ant-44 (0.5 μM). A 1 mM AG solution was incubated with the CHO K1 cells for 24 h prior to the addition of candidate compound. This was necessary to protect Ant-44 from the amine oxidases present in the media containing fetal bovine serum. […] Both compounds are nontoxic at the highest concentration tested (5 μM)."}, "L3.6pl cells": {"tested_on": "L3.6pl cells", "assay": "Ant-44 toxicity potentiation assay in L3.6pl cells", "assay_type": "cell-based, human", "conditions": "Homo sapiens, Ant-44 2 μM, 72 h", "method": "As performed previously with CHO K1 cells, L3.6pl cells were treated with compounds 9 (1666.177) and 10 (1666.255) and a fixed dose of Ant-44 to observe the potentiation effect. The 72 h IC50 dose of Ant-44 in L3.6pl cells was previously determined to be 4 μM. For this study, half that dose was used to replicate the large window used in the CHO experiments to look at reduction in cell viability. In a 96-well plate, L3.6pl cells were dosed with a fixed concentration of Ant-44 (2 μM) and increasing doses of compounds 9 (1666.177) and 10 (1666.255). Although both compounds were effective at reducing cell viability, higher doses were required compared to CHO K1 cells.\nFIG. 6 is an example according to various embodiments, illustrating the ability of compounds 9 (1666.177) and 10 ([…]) to potentiate the effect of Ant-44 in L3.6pl cells. Cells were incubated for 72 h at 37° C. with the respective compound and Ant-44 (2 μM). A 250 μM AG solution was incubated with the cells for 24 h prior to addition of compounds. […] Both compounds are nontoxic at the second highest concentration tested (1 μM)."}, "CHO K1 cells [3]": {"tested_on": "CHO K1 cells", "assay": "Cytotoxicity dose-response (MTS cell viability) in CHO K1 cells", "assay_type": "cell-based, Chinese hamster", "conditions": "48 h", "method": "CHO K1 Studies. Wild type Chinese hamster ovary (CHO K1) cells were chosen to first study the synthetic compounds' impact on polyamine metabolism. The CHO K1 cell line has high polyamine transport activity and was useful in screening compounds for their polyamine transport inhibitor activity. A dose-response curve was obtained for each compound to determine their toxicity in CHO K1 cells after 48 h incubation. Compound 9 (1666.177) was non-toxic up to the highest dose tested (15 μM).\nas §1, §2"}, "CHO K1 cells [4]": {"tested_on": "CHO K1 cells", "conditions": "previously determined (ref 7), read-out: 48 h IC50; cited from earlier work"}, "LAT-1 [5]": {"molecular_target": "T1, LAT-1 (Homo sapiens, UniProt Q01650)", "T1 construct": "endogenous in cells; host or cells: L3.6pl human pancreatic cancer cells", "T1 sequence (Q01650 whole entry)": "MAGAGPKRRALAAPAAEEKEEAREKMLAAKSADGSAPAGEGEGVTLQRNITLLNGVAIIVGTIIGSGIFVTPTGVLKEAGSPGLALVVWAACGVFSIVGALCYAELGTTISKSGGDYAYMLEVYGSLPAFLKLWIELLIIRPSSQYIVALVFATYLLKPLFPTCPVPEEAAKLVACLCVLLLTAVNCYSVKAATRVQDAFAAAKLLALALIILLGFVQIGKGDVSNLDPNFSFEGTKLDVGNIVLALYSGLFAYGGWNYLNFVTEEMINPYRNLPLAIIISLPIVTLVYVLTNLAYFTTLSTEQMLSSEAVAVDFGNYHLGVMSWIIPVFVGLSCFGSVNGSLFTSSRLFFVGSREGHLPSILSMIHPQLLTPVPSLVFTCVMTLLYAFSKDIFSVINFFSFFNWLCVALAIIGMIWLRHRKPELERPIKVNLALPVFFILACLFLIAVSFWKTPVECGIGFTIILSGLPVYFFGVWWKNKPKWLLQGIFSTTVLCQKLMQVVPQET", "T1 sequence (P08195 102-630 partner)": "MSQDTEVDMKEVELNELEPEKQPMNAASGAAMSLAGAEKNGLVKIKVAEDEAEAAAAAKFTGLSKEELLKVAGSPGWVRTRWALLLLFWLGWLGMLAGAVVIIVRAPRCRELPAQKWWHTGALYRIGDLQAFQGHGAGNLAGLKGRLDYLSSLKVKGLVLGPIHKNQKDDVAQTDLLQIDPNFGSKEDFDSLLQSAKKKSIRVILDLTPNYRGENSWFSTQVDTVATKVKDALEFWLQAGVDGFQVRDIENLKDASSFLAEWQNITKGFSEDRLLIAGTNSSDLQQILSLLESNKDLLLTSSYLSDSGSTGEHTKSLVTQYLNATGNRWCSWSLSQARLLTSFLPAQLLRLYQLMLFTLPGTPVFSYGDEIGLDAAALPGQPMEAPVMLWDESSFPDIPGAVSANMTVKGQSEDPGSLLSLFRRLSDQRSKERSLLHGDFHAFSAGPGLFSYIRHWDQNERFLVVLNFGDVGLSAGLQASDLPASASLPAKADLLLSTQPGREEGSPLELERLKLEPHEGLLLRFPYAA", "assay": "3H-Leucine uptake assay", "assay_type": "cell-based", "conditions": "L3.6pl cells, increasing concentration, 15 min uptake (FIG. 10D, 10E)", "method": "^3H-Leucine uptake experiments were performed according to the protocol developed by Hälfliger et al. (2018) (referenced below with the following changes. Briefly, cells were seeded at 60% confluency in a 24-well plate and incubated for 4 h at 37° C. After 4 hours, different concentrations of compound 10 were added and the cells were then incubated overnight. L-^3H-leucine uptake inhibition was measured for 15 minutes using a 12 μM stock of L-[^3H]leucine (79 Ci/mmol). The final concentration of ^3H-leucine in each well was 1.2 uM. This concentration produced a CPM reading of ˜4000 cpm for the control. Uptake was terminated by removing the buffer solution followed by washing the cells with cold Na^+-free Hank's Balanced Salt Solution. Cells were then lysed to give ˜500 μL of cell lysate. A portion of the cell lysate (200 μL) was mixed with Scintiverse™ BD Cocktail for determining radiocounts. The radioactivity was measured with a scintillation counter (Beckman Coulter LS 6500 Multi-Purpose Scintillation Counter). Another portion of the cell lysate (300 μL) was used for protein determination using the BCA method. The final data was expressed as cpm/microgram of protein to account for the different number of cells remaining after the experiment. This was necessary because compound 10 was toxic and less cells were present after the overnight incubation (24 h). […]"}, "LAT-1 [6]": {"molecular_target": "T1, LAT-1", "assay": "3H-Leucine efflux assay", "assay_type": "cell-based", "conditions": "L3.6pl, 2 min; JPH-203 30 μM or compound 10 20 μM", "source_text": "JPH203 is not toxic to L3.6pl cells over this concentration range and time interval. FIG. 10E is an example according to various embodiments, illustrating results obtained for a Leu uptake inhibition experiment with compound 10. Note: the y-axis in FIG. 10E is in CPM per ug of protein to normalize the data and account for any potential losses of cells due to toxicity of compound 10. FIG. 10F is an example according to various embodiments, illustrating results obtained for a Leucine efflux experiment with LAT-1 inhibitor JPH-203. Briefly, the efflux procedure involved cells pre-incubated with ‘hot’ leucine (3H labeled) and washed to remove unbound radiolabeled Leucine. The cells were then incubated in the presence and absence of unlabeled Leucine (100 μM) and/or the LAT-1 inhibitor JPH-203 (30 μM). In the presence of unlabeled leucine, the cells released ‘hot’ 3H-leucine into the media which was measured via scintillation/radioactivity counts. This efflux or release from within the cell was inhibited by the presence of the LAT-1 inhibitor, JPH-203 (30 μM, FIG. 10F). Since JPH203 inhibits the import of unlabeled leucine then less unlabeled Leucine will enter the cell and less efflux of radiolabeled Leucine molecules from inside the cell will be observed. This is consistent with JPH-203 being a LAT-1 inhibitor. FIG. 10G is an example according to various embodiments, illustrating results obtained for a two minute Leucine efflux experiment with compound 10. Cells were pre-incubated with ‘hot’ leucine (^3H labeled) and washed to remove unbound radiolabeled Leucine. The cells were then incubated in the presence and absence of unlabeled “cold” Leucine (100 μM) and/or the compound 10 (20 μM). In the presence of unlabeled ‘cold’ leucine, the cells released ‘hot’ ^3H-leucine into the media which was measured via scintillation/radioactivity counting. […] The efflux experiment was repeated and the time for monitoring efflux increased to 30 minutes. […] In summary, compound 10 inhibits Leucine uptake and facilitates LAT-1 mediated efflux.\n^3H-Leucine Efflux Assay ^3H-Leucine efflux experiments were performed according to the protocol developed by Hälfliger et al. (2018) (referenced below) with the following changes. Briefly, cells were preloaded with 12 μM stock of L-[^3H]leucine (79 Ci/mmol) to give a final concentration of ^3H-leucine was 1.2 μM in each well. […] The medium was then collected and mixed with scintillation fluid (Scintiverse™ BD Cocktail) and radioactivity measured (Beckman Coulter LS 6500 Multi-Purpose Scintillation Counter). […] The lysate (300 μL) was mixed with scintillation fluid and radioactivity was counted. Relative efflux was expressed as percentage radioactivity=100%×(radioactivity of medium)/(radioactivity of the medium+radioactivity of the cells). […]"}}, "note": "Where two headings read alike, the source gives them in different places."}
{"smiles": "CC(C)(C)CCN1CCN(C(CNCc2ccccc2)Cc2ccccc2)CC1Cc1ccccc1.Cl.Cl.Cl", "note": "(stereo not drawn) [Compound 9, Benzyl-{2-[3-benzyl-4-(3,3-dimethyl-butyl)-piperazin-1-yl]-3-phenyl-propyl}-amine trihydrochloride salt]", "values": [{"measurement": "IC50", "setting": "[1]; Homo sapiens, L3.6pl cells, 72 h, read-out: 72 h IC50", "value": "11.7 ± 0.9", "unit": "µM"}, {"measurement": "toxicity of compound alone", "setting": "[1]; L3.6pl, second highest concentration tested (1 μM), 72 h", "value": "nontoxic"}, {"measurement": "EC50", "setting": "CHO K1 cells [2]; CHO K1 cells, 48 h (FIG. 5), read-out: Ant-44 potentiation EC50", "value": 0.75, "unit": "µM"}, {"measurement": "EC50", "setting": "CHO K1 cells [2]; CHO cells, 48 h, read-out: Ant44 potentiation assay EC50", "value": 0.75, "unit": "µM"}, {"measurement": "EC50", "setting": "L3.6pl cells", "value": "3.27 ± 0.17", "unit": "µM"}, {"measurement": "toxicity of compound alone", "setting": "CHO K1 cells [3]; CHO K1, highest concentration tested (5 μM)", "value": "nontoxic"}, {"measurement": "toxicity (dose-response curve)", "setting": "CHO K1 cells [3]; CHO K1 cells, up to the highest dose tested (15 μM)", "value": "non-toxic"}]}
{"smiles": "NCCC[C@](N)(C(=O)O)C(F)F", "note": "[DFMO, α-difluoromethylornithine]", "values": [{"measurement": "IC50", "setting": "CHO K1 cells [4]", "value": 4200, "unit": "µM"}]}
{"smiles": "Nc1cc(COc2c(Cl)cc(C[C@H](N)C(=O)O)cc2Cl)c2oc(-c3ccccc3)nc2c1", "note": "[JPH-203, reference compound]", "values": [{"measurement": "3H-Leucine uptake", "setting": "LAT-1 [5]", "value": "dose dependent decrease in 3H-Leucine uptake"}, {"measurement": "toxicity to L3.6pl cells", "setting": "[1]; over the concentration range and time interval of the uptake experiment", "value": "not toxic"}, {"measurement": "3H-leucine efflux stimulated by unlabeled Leucine (100 μM)", "setting": "LAT-1 [6]", "value": "inhibited"}, {"measurement": "3H-leucine efflux, compound alone", "setting": "LAT-1 [6]", "value": "modestly stimulated efflux"}]}
